PMC10740425, “How Deep Learning in Antiviral Molecular Profiling Identified Anti-SARS-CoV-2 Inhibitors” (Biomedicines, 2023)

Assays:
[1] = Mouse infection model, body weight changes; type: in vivo, BALB/C mice; settings: infected mice, 5 mg/kg intranasally, four-day observation
[2] = test system: SARS-CoV-2; type: cell-based; settings: Calu-3 cells, treated 1 h post-infection, up to 10 µM, 72 h
[3] = test system: SARS-CoV-2; settings: Calu-3 cells, 5 µM, pre-treated 2 h, MOI 0.1, 72 h
[4] = test system: Calu-3 cells; settings: uninfected Calu-3 cells, concentrations up to 10 µM, normalized to DMSO

SMILES	weight changes versus control group [1]	viral progeny / inhibitory effect (plaque assay, Western blotting) [2]	antiviral activity (intracellular virus, immunofluorescence staining) [3]	cellular toxicity [4]
O=P(O)(O)OC[C@H]1O[C@@H](n2cnc3c(S)ncnc32)[C@H](O)[C@@H]1O [thioinosinic acid]	no significant difference in weight changes	notable antiviral efficacy		
CC(C)C(=O)OC[C@H]1O[C@@H](n2ccc(NO)nc2=O)[C@H](O)[C@@H]1O [molnupiravir]		moderate inhibitory effects		
Cn1cnc([N+](=O)[O-])c1Sc1ncnc2nc[nH]c12 [azathioprine]	no significant difference in weight changes	significant reduction in viral progeny	antiviral activity comparable to established nucleoside analog inhibitors	low cellular toxicity
